These results are taken from ChEMBL document CHEMBL4190369, “Indolinone Inhibitors of ENT1 for the Treatment of Schizophrenia” (ACS Med Chem Lett, 2017).

For orientation: inhibition in vivo means the percentage by which the read-out fell short of the control.

For the assay, the system named is Mus musculus. The experiment in a line: Anti-schizophrenic activity in mouse assessed inhibition of L-687414-induced hyperlocomotion at 30 mg/kg, ip pretreated for 15 mins followed by L-687414 addition measured at 5 mins interval for 30 mins relative to control. It counts as functional.
With `Cc1ncc(-c2ccc3c(c2)N(c2cnc(-n4ccnc4C)cn2)C(=O)C3(C)C)cn1`, the inhibition in vivo at 30 mg/kg worked out at 96.3%.
Next, `Cc1ncc(-c2ccc3c(c2)N(c2cncc(N4CCCC4=O)n2)C(=O)C3(C)C)cn1`: 87.8%.
The figure for `Cc1ncc(-c2ccc3c(c2)N(c2ccc4c(n2)N(C)C(=O)C4(C)C)C(=O)C3(C)C)cn1` is 99.5%; for `Cc1ncc(-c2ccc3c(c2)N(c2cnc(C)c(N4CCOC4=O)n2)C(=O)C3(C)C)cn1` it is 89.7%; for `Cc1ncc(-c2ccc3c(c2)N(c2cncc(N4CCOCC4)n2)C(=O)C3(C)C)cn1` it is 90%.
The figure for `Cc1ncc(-c2ccc3c(c2)N(c2ccc4c(c2)N(C)C(=O)CO4)C(=O)C3(C)C)cn1` is 93.8%; for `Cc1ncc(-c2ccc3c(c2)N(c2cncc(N4CCOC4=O)n2)C(=O)C3(C)C)cn1` it is 87.1%.
Turning to `Cc1ncc(-c2ccc3c(c2)N(c2cnc4c(c2)C(C)(C)C(=O)N4C)C(=O)C3(C)C)cn1`, the inhibition in vivo at 30 mg/kg amounted to 93.5%.
Next, `Cc1ncc(-c2ccc3c(c2)N(c2cnc(C)c(N4CCOCC4)n2)C(=O)C3(C)C)cn1`: 88.8%.
